Laboratory results published in publication PMC4890260, “Engineering Bacillus licheniformis for the production of meso-2,3-butanediol” (Biotechnology for Biofuels, 2016).

Legend:
[1] = target: T1, WX-02 GDH (Bacillus licheniformis, UniProt X5FDW5); experiment: NADH formation at […] nm; format: biochemical; details: 4 mM NAD+; 50 mM substrate; Z buffer pH 7.0; 37 °C; 1 mM MgSO4, 10 mM DTT
T1 construct: primers encode native N-term MSKSVK (MG added before) and C-term AESYHD
T1 sequence (X5FDW5 1-367): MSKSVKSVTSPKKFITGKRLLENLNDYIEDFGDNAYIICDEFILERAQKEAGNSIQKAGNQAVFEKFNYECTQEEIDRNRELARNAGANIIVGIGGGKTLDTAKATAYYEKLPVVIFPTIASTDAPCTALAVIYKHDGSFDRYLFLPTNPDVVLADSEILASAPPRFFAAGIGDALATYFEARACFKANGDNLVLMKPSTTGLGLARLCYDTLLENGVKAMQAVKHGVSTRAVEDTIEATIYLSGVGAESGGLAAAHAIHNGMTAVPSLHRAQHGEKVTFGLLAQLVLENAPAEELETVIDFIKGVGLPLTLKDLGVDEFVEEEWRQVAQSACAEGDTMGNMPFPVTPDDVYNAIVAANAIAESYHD

[2] = target: T1, WX-02 GDH; experiment: NADH oxidation at […] nm; format: biochemical; details: 0.2 mM NADH; 50 mM substrate; Z buffer pH 7.0; 37 °C; 1 mM MgSO4, 10 mM DTT

Compound	NADH formation at 340 nm [1]	NADH oxidation at 340 nm [2]
C[C@@H](O)[C@@H](C)O [D-2,3-BD]	this enzyme exhibited the highest activity towards D-2,3-BD among various substrates	
CC(=O)[C@@H](C)O [D-AC]		WX-02 GDH accepted D-AC, D-2,3-BD, meso-2,3-BD, and glycerol as substrates
